Results on 57 compounds are retold here after patent publication US8389730B2, “Compositions and methods for the treatment of disease associated with TRP-P8 expression” (Dendreon Corporation, priority 2003, dated 2013).

Structures are written as SMILES.

T1 sequence (Q7Z2W7 whole entry T58I): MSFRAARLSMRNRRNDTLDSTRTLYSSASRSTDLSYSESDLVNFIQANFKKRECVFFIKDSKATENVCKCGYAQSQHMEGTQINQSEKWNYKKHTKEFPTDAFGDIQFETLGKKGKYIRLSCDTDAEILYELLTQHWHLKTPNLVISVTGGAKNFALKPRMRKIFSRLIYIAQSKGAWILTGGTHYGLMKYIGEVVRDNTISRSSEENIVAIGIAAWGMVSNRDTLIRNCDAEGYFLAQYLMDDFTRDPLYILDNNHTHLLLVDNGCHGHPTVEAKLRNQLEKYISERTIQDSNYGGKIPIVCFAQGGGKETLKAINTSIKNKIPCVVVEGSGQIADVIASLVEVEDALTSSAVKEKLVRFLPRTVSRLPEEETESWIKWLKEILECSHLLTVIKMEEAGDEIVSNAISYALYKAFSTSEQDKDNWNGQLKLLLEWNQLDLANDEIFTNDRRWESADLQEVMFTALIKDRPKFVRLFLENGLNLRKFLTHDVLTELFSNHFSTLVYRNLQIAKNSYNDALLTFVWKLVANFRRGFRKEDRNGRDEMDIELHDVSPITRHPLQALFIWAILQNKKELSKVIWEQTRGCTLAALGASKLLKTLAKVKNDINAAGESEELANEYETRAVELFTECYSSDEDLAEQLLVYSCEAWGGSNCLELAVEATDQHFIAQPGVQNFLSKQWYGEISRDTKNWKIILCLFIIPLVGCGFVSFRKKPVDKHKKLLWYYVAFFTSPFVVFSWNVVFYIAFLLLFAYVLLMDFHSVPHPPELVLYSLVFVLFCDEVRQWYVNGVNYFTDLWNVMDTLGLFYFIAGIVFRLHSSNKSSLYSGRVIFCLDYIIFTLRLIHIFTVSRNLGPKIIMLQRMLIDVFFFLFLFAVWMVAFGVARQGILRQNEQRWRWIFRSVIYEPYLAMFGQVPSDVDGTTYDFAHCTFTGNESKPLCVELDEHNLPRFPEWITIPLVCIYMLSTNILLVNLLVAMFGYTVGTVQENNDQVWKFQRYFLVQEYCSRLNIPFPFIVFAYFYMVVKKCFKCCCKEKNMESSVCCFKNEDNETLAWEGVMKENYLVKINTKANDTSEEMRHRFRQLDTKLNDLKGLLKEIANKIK

The first data set concerns the target T1, Trp-p8 (Homo sapiens, UniProt Q7Z2W7, T58I).
T1 construct: expressed in transfected cells
Put plainly: Cell viability (ATP) assay for Trp-p8 antagonists: protection of CHO/Trp-p8 cells from toxic control agonist D-1607. Particulars: Table 2, Formula VIII antagonists; 10 μM compound plus toxic concentration of control agonist D-1607, CHO/Trp-p8 cells, 37° C.; ATP level relative to DMSO. Type of data set: cell-based. Here is the method: FIG. 4 is a graph depicting exemplary results from a primary screen for Trp-p8 antagonists using the ATP viability assay, described herein, with CHO/Trp-p8 cells at 37° C. CHO/Trp-p8 cells were exposed to compounds, at different concentrations, in 1% DMSO or 1% DMSO in combination with a toxic concentration of the Trp-p8 agonist 1607. The viability of cells was measured after 24-26 hours at 37° C. using the ATP assay.
As a primary screen for efficacy and specificity for agonists, both the non-transfected CHO and CHO/Trp-p8 cells were exposed to 10 μM of test compounds in 1% dimethylsulfoxide (DMSO) or 1% DMSO (control) in a 96-well black walled, black-bottomed, cell-culture treated plate. DMSO was the solvent for all of the compounds tested. After 24-26 hours at 37° C., the cells were lysed and ATP concentration determined via a chemiluminescence assay using a commercially available reagent kit—Cell Titer-Glo (Promega; Madison, Wis.). […] (EC50 is defined herein as the agonist concentration at which there is a 50% reduction in cell viability).
Trp-p8 antagonists were identified by employing a cell viability assay with CHO/Trp-p8 cells at 37° C. (see Example 7) with the following modification. Within the context of the present invention, compounds that protect CHO/Trp-p8 cells from the toxic effect of a control agonist thereby maintaining the viability of the CHO/Trp-p8 cell exposed to a Trp-p8 agonist is defined as antagonist. As a primary screen for antagonists, CHO/Trp-p8 cells were exposed to 10 μM of test compounds in 1% dimethylsulfoxide (DMSO) or 1% DMSO plus a toxic concentration of a control agonist, D-1607.
Take `CC(C)[C@@H]1CC[C@@H](C)C[C@H]1C(=O)Nc1nnc(Sc2ccnc3cc(Cl)ccc23)s1` [compound 3026]: the “Relative Viability (%) at 10 μM” value came out at 86%.

For the compound `CC(C)[C@@H]1CC[C@@H](C)C[C@H]1OCC(=O)N1CCc2ccccc2C1` [compound 1688], the “Relative Viability (%) at 10 μM” value is 91%.

`CC(C)[C@@H]1CC[C@@H](C)C[C@H]1NC(=O)[C@@H]1C[C@H]1c1ccccc1` [compound 2013]: the “Relative Viability (%) at 10 μM” value is on record as 95%.

With `CC(C)CN(CCNC(=O)CO[C@@H]1C[C@H](C)CC[C@H]1C(C)C)CC(C)C` [compound 1920], the “Relative Viability (%) at 10 μM” value was determined as 81%.

For `CCc1ccc(-c2n[nH]cc2CN[C@@H]2C[C@H](C)CC[C@H]2C(C)C)cc1` [compound 2754], the “Relative Viability (%) at 10 μM” value is 74%.

`CC(C)[C@@H]1CC[C@@H](C)C[C@H]1OCC(=O)NCCC1=CCCCC1` [compound 1743]: the “Relative Viability (%) at 10 μM” value is given as 97%.

As for `CC(C)[C@@H]1CC[C@@H](C)C[C@H]1NC(=O)NCCN1CCCc2ccccc21` [compound 1815], the “Relative Viability (%) at 10 μM” value amounted to 87%.

With `CCN(CCNC(=O)CO[C@@H]1C[C@H](C)CC[C@H]1C(C)C)c1cccc(C)c1` [compound 1937], the “Relative Viability (%) at 10 μM” value stood at 101%.

On to `CC(C)[C@@H]1CC[C@@H](C)C[C@H]1NC(=O)CCC1CCCC1` [compound 1996], for which the “Relative Viability (%) at 10 μM” value is reported as 89%.

With `Cc1ccccc1CCNC(=O)CO[C@@H]1C[C@H](C)CC[C@H]1C(C)C` [compound 1923], the “Relative Viability (%) at 10 μM” value was 116%.

Turning to `CC(C)[C@@H]1CC[C@@H](C)C[C@H]1OCC(=O)N1CCCc2ccccc21` [compound 1696], the “Relative Viability (%) at 10 μM” value stood at 82%.

Turning to `CCCC1c2cccn2CCN1C(=O)O[C@@H]1C[C@H](C)CC[C@H]1C(C)C` (stereo partly drawn) [compound 1941], the “Relative Viability (%) at 10 μM” value is reported as 98%.

On to `CC(C)[C@@H]1CC[C@@H](C)C[C@H]1NS(=O)(=O)c1cc(Br)c(Br)s1` [compound 2134], for which the “Relative Viability (%) at 10 μM” value is reported as 63%.

On to `CC(Oc1ccccc1)C(=O)N[C@@H]1C[C@H](C)CC[C@H]1C(C)C` (stereo partly drawn) [compound 2018], for which the “Relative Viability (%) at 10 μM” value amounted to 103%.

For the compound `COc1ccccc1CNC(=O)CO[C@@H]1C[C@H](C)CC[C@H]1C(C)C` [compound 1673], the “Relative Viability (%) at 10 μM” value was 112%.

For `CC(C)[C@@H]1CC[C@@H](C)C[C@H]1NC(=O)N1CCc2ccccc2C1` [compound 1819], the “Relative Viability (%) at 10 μM” value amounted to 86%.

With `Cc1ccc(O)c(CN[C@@H]2C[C@H](C)CC[C@H]2C(C)C)c1` [compound 2710], the “Relative Viability (%) at 10 μM” value was found to be 70%.

Take `CC(C)[C@@H]1CC[C@@H](C)C[C@H]1NC(=O)[C@@]12CC[C@@](C)(C(=O)O1)C2(C)C` [compound 2046]: the “Relative Viability (%) at 10 μM” value is listed as 89%.

`CC(C)[C@@H]1CC[C@@H](C)C[C@H]1OCC(=O)NCC1(c2ccccc2)CCCC1` [compound 1745]: the “Relative Viability (%) at 10 μM” value stood at 88%.

Regarding `CC(C)[C@@H]1CC[C@@H](C)C[C@H]1NCc1c[nH]nc1-c1ccc(F)cc1` [compound 2752], the “Relative Viability (%) at 10 μM” value is on record as 65%.

On to `CC(C)[C@@H]1CC[C@@H](C)C[C@H]1NCc1c[nH]nc1-c1ccccc1` [compound 2745], for which the “Relative Viability (%) at 10 μM” value is given as 62%.

As for `CCCC1c2cccn2CCC1C(=O)N[C@@H]1C[C@H](C)CC[C@H]1C(C)C` (stereo partly drawn) [compound 1838], the “Relative Viability (%) at 10 μM” value was found to be 88%.

`CCCc1c(C(=O)N[C@@H]2C[C@H](C)CC[C@H]2C(C)C)cnn1-c1ccccc1` [compound 2067]: the “Relative Viability (%) at 10 μM” value came to 105%.

As for `CC(C)[C@@H]1CC[C@@H](C)C[C@H]1OC(=O)N1CCCc2ccccc21` [compound 1465], the “Relative Viability (%) at 10 μM” value was 90%.

Consider `COc1ccccc1NC(=O)CO[C@@H]1C[C@H](C)CC[C@H]1C(C)C` [compound 1709], for which the “Relative Viability (%) at 10 μM” value is 95%.

In the case of `CC(C)[C@@H]1CC[C@@H](C)C[C@H]1NC(=O)N1c2ccccc2CC1C` (stereo partly drawn) [compound 1781], the “Relative Viability (%) at 10 μM” value stood at 91%.

`CC(C)[C@@H]1CC[C@@H](C)C[C@H]1C(=O)Nc1ccc(S(=O)(=O)N2CCCCCC2)cc1` [compound 2865]: the “Relative Viability (%) at 10 μM” value was 91%.

Consider `CC(C)[C@@H]1CC[C@@H](C)C[C@H]1NC(=O)SCc1ccccc1` [compound 2291], for which the “Relative Viability (%) at 10 μM” value came out at 87%.

Turning to `CC(C)[C@@H]1CC[C@@H](C)C[C@H]1OCC(=O)N1CCn2cccc2C1C` (stereo partly drawn) [compound 1918], the “Relative Viability (%) at 10 μM” value was 94%.

As to `CC(C)[C@@H]1CC[C@@H](C)C[C@H]1OC(=O)N1c2ccccc2CC1C` (stereo partly drawn) [compound 1475], the “Relative Viability (%) at 10 μM” value is listed as 100%.

For `CC(C)[C@@H]1CC[C@@H](C)C[C@H]1OC(=O)N1CCc2ccccc21` [compound 1504], the “Relative Viability (%) at 10 μM” value came out at 90%.

`CC(C)[C@@H]1CC[C@@H](C)C[C@H]1NC(=O)NCCC1=CCCCC1` [compound 1883]: the “Relative Viability (%) at 10 μM” value is 84%.

For `CC(C)[C@@H]1CC[C@@H](C)CC1C(=O)N1c2ccccc2CC1C` (stereo partly drawn) [compound 1588], the “Relative Viability (%) at 10 μM” value turned out to be 88%.

Take `Cc1ccnc(N(Cc2ccccc2)C(=O)[C@@H]2C[C@H](C)CC[C@H]2C(C)C)c1` [compound 2639]: the “Relative Viability (%) at 10 μM” value was determined as 102%.

In the case of `CCCCOc1ccc(-c2n[nH]cc2CN[C@@H]2C[C@H](C)CC[C@H]2C(C)C)cc1` [compound 2777], the “Relative Viability (%) at 10 μM” value is recorded as 83%.

Still in this data set, the particulars now being: Table 3, Formula VII antagonists; 10 μM compound plus toxic concentration of control agonist, CHO/Trp-p8 cells, 37° C.; ATP level relative to DMSO.
Regarding `Cc1nc2sc(C(c3cccc(F)c3)N3CCN(C(c4ccccc4)c4ccccc4)CC3)c(O)n2n1` (stereo not drawn) [compound 1026], the “Rel. Viab. (%) at 10 μM” value amounted to 92%.

In the case of `FC(F)(F)Oc1ccc(Nc2nc(N3CCCCCC3)nc(N3CCN(C45CC6CC(CC(C6)C4)C5)CC3)n2)cc1` [compound 809], the “Rel. Viab. (%) at 10 μM” value stood at 89%.

Take `O=C1c2ccccc2-c2onc3c(N4CCN(C5CCCCC5)CC4)cc(Nc4ccc5c(c4)OCCO5)c1c23` [compound 882]: the “Rel. Viab. (%) at 10 μM” value amounted to 86%.

Consider `O=[N+]([O-])c1ccc(N2CCN(c3ccc(C(F)(F)F)cc3[N+](=O)[O-])CC2)cc1NCc1ccccc1` [compound 27], for which the “Rel. Viab. (%) at 10 μM” value came out at 87%.

Regarding `N#Cc1nc(COc2ccccc2F)oc1N1CCN(c2ccccc2)CC1` [compound 711], the “Rel. Viab. (%) at 10 μM” value is 94%.

In the case of `c1ccc(Cc2nc(N3CCN(c4ccccn4)CC3)c3c4c(sc3n2)CCCC4)cc1` [compound 1323], the “Rel. Viab. (%) at 10 μM” value is reported as 88%.

For `CC1CCC(C(C)C)C(OCC(O)CN2CCN(Cc3ccc(Cl)cc3)CC2)C1` (stereo not drawn) [compound 2496], the “Rel. Viab. (%) at 10 μM” value is reported as 82%.

As to `O=C1c2ccccc2-c2onc3c(N4CCN(C5CCCCC5)CC4)cc(Nc4ccc5c(c4)OCO5)c1c23` [compound 881], the “Rel. Viab. (%) at 10 μM” value came out at 82%.

Turning to `Cc1cc(N2CCN(c3cc(N4CCN(CCO)CC4)ccc3[N+](=O)[O-])CC2)c2ccccc2n1` [compound 74], the “Rel. Viab. (%) at 10 μM” value is 81%.

Consider `O=[N+]([O-])c1cc(S(=O)(=O)C(F)(F)F)ccc1N1CCN(c2ccccc2)CC1` [compound 107], for which the “Rel. Viab. (%) at 10 μM” value is 98%.

For `Cc1nc2sc(C(c3cccc(O)c3)N3CCN(C(c4ccccc4)c4ccccc4)CC3)c(O)n2n1` (stereo not drawn) [compound 1027], the “Rel. Viab. (%) at 10 μM” value was found to be 84%.

With `OC(F)(F)Oc1ccc(Nc2nc(N3CCCCCC3)nc(N3CCN(C45CC6CC(CC(C6)C4)C5)CC3)n2)cc1` [compound 812], the “Rel. Viab. (%) at 10 μM” value is 99%.

As to `O=C1C(c2ccc(Cl)cc2)N(C2CCCCCC2)C(=O)CN1C1CCCC1` (stereo not drawn) [compound 1283], the “Rel. Viab. (%) at 10 μM” value is 100%.

As to `Cc1nc(N2CCOCC2)nc(N2CCN(c3ccccc3)CC2)c1[N+](=O)[O-]` [compound 69], the “Rel. Viab. (%) at 10 μM” value turned out to be 106%.

Turning to `O=C1CN(c2nc3ccccc3c(=O)n2Cc2ccccc2)CC(=O)N1CCc1ccccc1` [compound 1069], the “Rel. Viab. (%) at 10 μM” value came out at 86%.

In the case of `Cc1cc(N2CCN(Cc3ccc4c(c3)SCO4)CC2)n2nc(C)c(-c3ccc(Br)cc3)c2n1` [compound 1313], the “Rel. Viab. (%) at 10 μM” value turned out to be 92%.

Take `Cc1ccc(C)n1-c1ccc(N2CCN(c3ccccc3)CC2)c([N+](=O)[O-])c1` [compound 103]: the “Rel. Viab. (%) at 10 μM” value was 99%.

`Cc1ccc(C2C(=O)N(C3CCC(C)CC3)CC(=O)N2C2CCCC2)cc1` (stereo not drawn) [compound 1262]: the “Rel. Viab. (%) at 10 μM” value came to 86%.

`c1ccc(CNc2nc(N3CCN(c4ccccc4)CC3)nc3ccccc23)cc1` [compound 67]: the “Rel. Viab. (%) at 10 μM” value stood at 102%.

As for `Cc1nc2sc(C(c3ccc(Br)cc3)N3CCN(C(c4ccccc4)c4ccccc4)CC3)c(O)n2n1` (stereo not drawn) [compound 1021], the “Rel. Viab. (%) at 10 μM” value is listed as 92%.

Regarding `COc1cc(C(c2sc3nc(C)nn3c2O)N2CCN(C(c3ccccc3)c3ccccc3)CC2)cc(OC)c1OC` (stereo not drawn) [compound 1028], the “Rel. Viab. (%) at 10 μM” value came to 85%.

As to `O=[N+]([O-])c1cc(Cl)ccc1N1CCN(c2ccc([N+](=O)[O-])c3cccnc23)CC1` [compound 34], the “Rel. Viab. (%) at 10 μM” value is on record as 82%.
